The source of these data is patent US7323479B2, “Methods for treatment and management of brain cancer using 1-oxo-2-(2,6-dioxopiperidin-3-yl)-4-methylisoindoline” (Celgene Corporation, priority 2002, dated 2008).

One data set has as its system IL-2 and IFN-γ. The experiment in a line: Augmentation of IL-2 and IFN-γ production following TCR activation of PBMC (IL-2) or T-cells (IFN-γ). It counts as cell-based.
A further data set has as its system TNF-α, IL-1β, and IL-6. Briefly: LPS-stimulated production of pro-inflammatory cytokines by PBMC. It counts as cell-based.
For the next data set, the system named is IL-10. The experiment in a line: LPS-stimulated production of anti-inflammatory cytokine IL-10 by PBMC. It counts as cell-based.
Data set [1] is described as follows: Cardiovascular and respiratory function in anesthetized dogs. The data set is classed as in vivo, Beagle dogs. From the text:
Two groups of Beagle dogs (2/sex/group) are used.

Data set [2] can be described thus: Phase 1 studies of Revimid in refractory or relapsed multiple myeloma: pharmacokinetics. The data set is classed as in vivo. The protocol:
(§1) Patients were evaluated for adverse events at each visit and the severity of these events was graded according to the National Cancer Institute (NCI) Common Toxicity Criteria. Patients were discontinued if they experienced DLT (Grade 3 or greater non-hematological, or Grade 4 hematological toxicity).
Blood and urine samples were collected for analysis of pharmacokinetic parameters on Days 1 and 28. Blood samples were collected according to the following sampling schedule: pre-dose, 0.25, 0.5, 0.75, 1, 1.5, 2, 2.5, 3, 4, 6, 8, 10, 12, 18, and 24 hours post-dose. In addition, a blood sample was collected at each weekly clinic visit for 3-(4-amino-1-oxo-1,3-dihydro-isoindol-2-yl)-piperidine-2,6-dione determination. Total urine was collected and pooled according to the following time intervals post-dose: 0 to 4, 4 to 8, 8 to 12, and 12 to 24 hours. […] Bone marrow aspirations and/or tissue biopsy are also performed at Months 3, 6 and 12 if a patient's paraprotein serum concentration or 24-hour urine protein excretion declined to the next lower level, based on best response criteria.

Data set [3] is described as follows: Phase 1 studies of Revimid in refractory or relapsed multiple myeloma: dose limiting toxicity. It counts as in vivo. The protocol:
as §1

The nature of data set [4]: Phase 1 study of Revimid in patients with solid tumors: dose limiting toxicity. As to conditions: initial group of 20 patients, 5 escalated to 50 mg/day over 4 weeks. It counts as in vivo. The protocol: Patients who, experienced clinical benefit were permitted to continue on treatment as Named Patients.
The study design dictates that at least 3 patients must be enrolled at a dose level and have completed 28 days of treatment prior to enrollment of patients at the next higher dose level. Patients in the first cohort began dosing at 5 mg/day of 3-(4-amino-1′-oxo-1,3-dihydro-isoindol-2-yl)-piperidine-2,6-dione. […]
If, at any given dose level in either study, one out of three patients experiences toxicity, three additional patients must be treated at that particular dose. If, however, two out of six patients experience DLT, the MTD is judged to have been exceeded. No further dose escalations are to occur and additional patients are to be enrolled at the previous dose level.

For the next data set, the system named is metastatic melanoma. The experiment in a line: Treatment of patients with metastatic melanoma. It counts as in vivo, human. The protocol:
The dose was then increased every seven days to 10 mg/day, 25 mg/day, and 50 mg/day, respectively, for a total of four weeks on therapy.

A short description of data set [5]: Pharmacokinetics of Actimid in relapsed/refractory multiple myeloma patients. It counts as in vivo, human. Conditions: for AUC: AUC(0-τ); for Vd/F: Vz/f; for half-life: t½. The protocol: 4-(Amino)-2-(2,6-dioxo(3-piperidyl))-isoindoline-1,3-dione (Actimid™) was administered to patients with relapsed/refractory multiple myeloma. The study was conducted in compliance with Good Clinical Practices. Patients were at least 18 years old, had been diagnosed with multiple myeloma (with paraprotein in serum and/or urine), and were considered refractory to treatment after at least two cycles of treatment, or have relapsed after two cycles of treatment.
4-(Amino)-2-(2,6-dioxo(3-piperidyl))-isoindoline-1,3-dione is administered to patients at doses of 1, 2, 5, or 10 mg/day for up to four weeks; at each dose level, three patients are initially enrolled. Dosing occurs at approximately the same time each morning; all doses are administered in the fasted state (no eating for at least two hours prior to dosing and two hours after dosing). 4-(Amino)-2-(2,6-dioxo(3-piperidyl))-isoindoline-1,3-dione doses are administered in an ascending fashion such that patients in the first cohort receive the lowest dose of 4-(amino)-2-(2,6-dioxo(3-piperidyl))-isoindoline-1,3-dione (1 mg/day) and escalation to the next higher dose level occurs only following the establishment of safety and tolerability at the current dose. If one out of three patients at any dose level experience dose limiting toxicity (DLT), three additional patients are enrolled at that dose. If none of the three additional patients experience DLT, escalation to the next dose level occurs; dose escalations continue in a similar fashion until the MTD is established or the maximum daily dose (10 mg/day) is attained. However, if one of the three additional patients enrolled experiences DLT, the MTD has been reached. If two or more of the three additional patients enrolled experience DLT, the MTD is judged to have been exceeded and three additional patients are enrolled at the preceding dose level to confirm the MTD. Once the MTD has been identified, four additional patients are enrolled at that dose level so that a total of 10 patients is treated at the MTD.
Blood sampling for analysis of pharmacokinetic parameters is performed on Days 1 and 28 according to the following sampling schedule: pre-dose, 0.25, 0.5, 0.75, 1, 1.5, 2, 2.5, 3, 4, 6, 8, 10, 12, 18, and 24 hours post-dose. An additional blood sample is collected at each weekly visit for the determination of 4-(amino)-2-(2,6-dioxo(3-piperidyl))-isoindoline-1,3-dione levels. Total urine collections are also made with urine pooled according to the following time intervals post-dose: 0 to 4, 4 to 8, 8 to 12, and 12 to 24 hours. Safety assessments are made by monitoring adverse events, vital signs, ECGs, clinical laboratory evaluations (blood chemistry, hematology, lymphocyte phenotyping, and urinalysis), and physical examination at specific times during the study.

The mark [6] stands for this setting: multiple myeloma patients, preliminary.

As for `Nc1cccc2c1CN(C1CCC(=O)NC1=O)C2=O` (stereo not drawn) [Revimid, 3-(4-amino-1-oxo-1,3-dihydro-isoindol-2-yl)-piperidine-2,6-dione], in the data set with IL-2 and IFN-γ, the “times more potent than thalidomide in augmenting the production of IL-2 and IFN-γ” value is on record as 50-100 times. For the same compound, in the data set on TNF-α, IL-1β, and IL-6, the “effect on LPS-stimulated production of TNF-α, IL-1β, and IL-6” value is given as “dose-dependent inhibition”. Besides, the “effect on production of IL-10” value in the data set with IL-10 is recorded as “increased production”. Besides, the “cardiovascular and respiratory changes compared to the vehicle control group” value in [1] (anesthetized dogs, 2, 10, and 20 mg/kg, infusion through the jugular vein, all doses) is given as “minimal”. Besides, the “deviations in femoral blood flow, respiratory parameters, and Qtc interval” value in data set [1] (common to both the control and treated groups) was “not considered treatment-related”. Further, the “duration of the arterial blood pressure effect” value in data set [1] (low dose) was “approximately 15 minutes”. The “arterial blood pressure after small increase” value in data set [1] (low dose, increase from 94 mmHg, not seen at higher doses) stood at 101 mmHg. Further, in [2] (human, in vivo), the “half-live in patients, mean” value stood at 8 h and the “half-live in patients, ranging up to” value is listed as “up to 17 hours”. In data set [2] (in vivo), the “accumulation with multiple dosing” value is reported as “no evidence of accumulation” and the “shape of concentration profile” value was “double peaks were observed”. For the same compound, in data set [2] (setting [6]), the “clearance compared to healthy volunteers” value is given as “lower”; the “exposure (Cmax and AUC) compared to healthy male volunteers” value was “slightly higher”. Moreover, in [3] (first cohort of 3 patients, 5 mg/day, 28 days), the “dose limiting toxicity (DLT)” value is reported as “without any dose limiting toxicity”. Moreover, the tolerability result in data set [3] (second cohort of 3 patients, 10 mg/day) was “tolerated treatment well”. Further, the DLTs reported entry in data set [4] is reported as “No DLTs”. In addition, the “patients showing disease stabilization or a partial response” value in the data set with metastatic melanoma (first four weeks of treatment, 5 escalated to 50 mg/day) was “Five of the 13”. Further, in the data set with metastatic melanoma (metastatic melanoma patients), the duration of response result is recorded as “approximately six months”; the “tumor response seen in cutaneous and subcutaneous lesions” value is recorded as “five”; the “tumor response seen in liver” value is listed as “one”; the “tumor response seen in lymph nodes” value was “two”.

In the case of `Nc1cccc2c1C(=O)N(C1CCC(=O)NC1=O)C2=O` (stereo not drawn) [Actimid, 4-(Amino)-2-(2,6-dioxo(3-piperidyl))-isoindoline-1,3-dione], the “increase in AUC(0-τ) with 5-fold increase in dose” value in [5] (Day 1) was 3.6 fold; in data set [5] (Week 4) it was 2.3 fold. Further, the “increase in Cmax with five-fold higher dose” value in data set [5] (Day 1) is reported as 3.2 fold; in data set [5] (Week 4), 2.2 fold. In addition, the “decline of plasma concentrations after reaching Cmax” value in data set [5] (human, in vivo) is “declined in a monophasic manner”. The “increase in AUC(0-τ) and Cmax values with increasing dose” value in data set [5] (human, in vivo) is recorded as “almost a dose proportional increase”. The AUC(0-inf) in data set [5] (human, in vivo, 1 mg) is 0.153 µg·h/mL; in data set [5] (human, in vivo, 2 mg), 0.279 µg·h/mL; in [5] (human, in vivo, 5 mg), 0.593 µg·h/mL. In addition, the AUC in [5] (human, in vivo, 1 mg) turned out to be 0.134 µg·h/mL; in data set [5] (human, in vivo, 2 mg), 0.25 µg·h/mL; in [5] (human, in vivo, 5 mg) it was 0.521 µg·h/mL. For the same compound, the Cmax in data set [5] (human, in vivo, 1 mg) was 0.015 µg/mL; in [5] (human, in vivo, 2 mg) it was 0.0244 µg/mL; in data set [5] (human, in vivo, 5 mg), 0.0486 µg/mL. Further, the Vd/F was determined as 69.5 L in [5] (human, in vivo, 1 mg); 65.3 L in data set [5] (human, in vivo, 2 mg); 87.2 L in data set [5] (human, in vivo, 5 mg). Further, the Tmax in [5] (human, in vivo, 1 mg, tmax) is 3.3 h; in data set [5] (human, in vivo, 2 mg, tmax), 2.7 h; in [5] (human, in vivo, 5 mg, tmax) it was 2.3 h; in data set [5] (human, in vivo, median Tmax), 2.5 to 2.8 h; in [5] (human, in vivo, po, tmax), 3.6 h. For the same compound, the half-life is 7.3 h in [5] (human, in vivo, 1 mg); 6.3 h in data set [5] (human, in vivo, 2 mg); 6.5 h in data set [5] (human, in vivo, 5 mg); 6.2 h in [5] (human, in vivo, po).
